# Measured values published in PubChem BioAssay AID248 (DTP/NCI, 2004).
# “And” between values parts separate entries of the source, which are not always exact repeats. Identical values can stand only once. Toxic doses and inconclusive results are not listed.
# Tested on: L1210 leukemia ip in BDF1 mice, survival T/C
# Assay: NCI In Vivo Anticancer Drug Screen. Data for tumor model L1210 Leukemia (intraperitoneal) in B6D2F1 (BDF1) mice
# Details: endpoint: mean survival time, higher = longer survival
# In short: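 Antitumor effect is assessed in tumor-bearing animals. Survival in the compound arm is compared with a vehicle-dosed control arm and expressed as their quotient.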
# [1] = dose: 100.0 mg/kg/injection, schedule: Q01DX009 (ip), vehicle: Klucel (hydroxypropylcellulose) (HPC)
# [2] = dose: 100.0 mg/kg/injection, schedule: Q04DX003 (ip), vehicle: Klucel (hydroxypropylcellulose) (HPC)
# [3] = dose: 200.0 mg/kg/injection, schedule: Q01DX009 (ip), vehicle: Klucel (hydroxypropylcellulose) (HPC)
# [4] = dose: 200.0 mg/kg/injection, schedule: Q04DX003 (ip), vehicle: Klucel (hydroxypropylcellulose) (HPC)
# [5] = dose: 400.0 mg/kg/injection, schedule: Q04DX003 (ip), vehicle: Klucel (hydroxypropylcellulose) (HPC)
compound,measurement,setting,value
O=NN(CCF)C(=O)NC1CCS(=O)(=O)CC1,T/C,"dose: 1.12 mg/kg/injection, schedule: Q01DX015 (ip), vehicle: other",119 % of control
same,T/C,"dose: 1.76 mg/kg/injection, schedule: Q01DX015 (ip), vehicle: other",179 % of control
same,T/C,"dose: 1.9 mg/kg/injection, schedule: Q01DX001 (ip), vehicle: saline with Tween-80",201 % of control
same,T/C,"dose: 2.0 mg/kg/injection, schedule: Q01DX001 (ip), vehicle: other",118 % of control
same,T/C,"dose: 2.68 mg/kg/injection, schedule: Q01DX015 (ip), vehicle: other",309 % of control and 311 % of control
same,T/C,"dose: 3.52 mg/kg/injection, schedule: Q02DX008 (ip), vehicle: other",231 % of control and 246 % of control
same,T/C,"dose: 3.75 mg/kg/injection, schedule: Q01DX001 (ip), vehicle: other",160 % of control
same,T/C,"dose: 3.8 mg/kg/injection, schedule: Q01DX001 (ip), vehicle: saline with Tween-80",207 % of control
same,T/C,"dose: 4.0 mg/kg/injection, schedule: Q01DX015 (ip), vehicle: other",422 % of control and 644 % of control
same,T/C,"dose: 4.7 mg/kg/injection, schedule: Q## X004 (ip), vehicle: other",268 % of control
same,T/C,"dose: 5.0 mg/kg/injection, schedule: Q01DX001 (ip), vehicle: other",163 % of control
same,T/C,"dose: 5.36 mg/kg/injection, schedule: Q02DX008 (ip), vehicle: other",484 % of control and 538 % of control
same,T/C,"dose: 5.6 mg/kg/injection, schedule: Q## X032 (ip), vehicle: other",261 % of control
same,T/C,"dose: 6.0 mg/kg/injection, schedule: Q01DX015 (ip), vehicle: other",290 % of control and 433 % of control
same,T/C,"dose: 6.0 mg/kg/injection, schedule: Q## X032 (ip), vehicle: other",153 % of control
same,T/C,"dose: 7.0 mg/kg/injection, schedule: Q## X004 (ip), vehicle: other",519 % of control and 532 % of control
same,T/C,"dose: 7.5 mg/kg/injection, schedule: Q01DX001 (ip), vehicle: other",302 % of control
same,T/C,"dose: 7.5 mg/kg/injection, schedule: Q01DX001 (ip), vehicle: saline with Tween-80",557 % of control
same,T/C,"dose: 8.0 mg/kg/injection, schedule: Q01DX001 (ip), vehicle: other",186 % of control
same,T/C,"dose: 8.0 mg/kg/injection, schedule: Q02DX008 (ip), vehicle: other",426 % of control and 715 % of control
same,T/C,"dose: 9.0 mg/kg/injection, schedule: Q01DX015 (ip), vehicle: other",339 % of control
same,T/C,"dose: 9.4 mg/kg/injection, schedule: Q01DX001 (ip), vehicle: other",364 % of control
same,T/C,"dose: 10.0 mg/kg/injection, schedule: Q01DX001 (ip), vehicle: other",340 % of control
same,T/C,"dose: 10.7 mg/kg/injection, schedule: Q## X004 (ip), vehicle: other",605 % of control and 650 % of control
same,T/C,"dose: 12.0 mg/kg/injection, schedule: Q02DX008 (ip), vehicle: other",330 % of control and 476 % of control
same,T/C,"dose: 13.0 mg/kg/injection, schedule: Q## X032 (ip), vehicle: other",468 % of control
same,T/C,"dose: 14.0 mg/kg/injection, schedule: Q01DX001 (ip), vehicle: other",577 % of control and 580 % of control
same,T/C,"dose: 15.0 mg/kg/injection, schedule: Q01DX001 (ip), vehicle: other",365 % of control
same,T/C,"dose: 15.0 mg/kg/injection, schedule: Q01DX001 (ip), vehicle: saline with Tween-80",666 % of control
same,T/C,"dose: 16.0 mg/kg/injection, schedule: Q01DX001 (ip), vehicle: other",315 % of control
same,T/C,"dose: 16.0 mg/kg/injection, schedule: Q## X004 (ip), vehicle: other",365 % of control and 580 % of control
same,T/C,"dose: 18.0 mg/kg/injection, schedule: Q02DX008 (ip), vehicle: other",326 % of control
same,T/C,"dose: 19.0 mg/kg/injection, schedule: Q## X032 (ip), vehicle: other",180 % of control and 430 % of control
same,T/C,"dose: 20.0 mg/kg/injection, schedule: Q01DX001 (ip), vehicle: other",365 % of control
same,T/C,"dose: 24.0 mg/kg/injection, schedule: Q## X004 (ip), vehicle: other",231 % of control and 271 % of control
same,T/C,"dose: 29.0 mg/kg/injection, schedule: Q## X032 (ip), vehicle: other",115 % of control
same,T/C,"dose: 30.0 mg/kg/injection, schedule: Q01DX001 (ip), vehicle: other",365 % of control
same,T/C,"dose: 30.0 mg/kg/injection, schedule: Q01DX001 (ip), vehicle: saline with Tween-80",677 % of control
same,T/C,"dose: 31.0 mg/kg/injection, schedule: Q01DX001 (ip), vehicle: other",315 % of control
same,T/C,"dose: 36.0 mg/kg/injection, schedule: Q## X004 (ip), vehicle: other",253 % of control
same,T/C,"dose: 40.0 mg/kg/injection, schedule: Q01DX001 (ip), vehicle: other",334 % of control
CC(=O)OC1=C(Cl)C(=O)c2ccccc2C1=O,T/C,"dose: 75.0 mg/kg/injection, schedule: Q01DX001 (ip), vehicle: other",89 % of control
same,T/C,"dose: 150.0 mg/kg/injection, schedule: Q01DX001 (ip), vehicle: other",94 % of control
O=CN/N=C\c1cccc2ccccc12,T/C,"dose: 75.0 mg/kg/injection, schedule: Q01DX001 (ip), vehicle: saline",103 % of control
same,T/C,"dose: 150.0 mg/kg/injection, schedule: Q01DX001 (ip), vehicle: saline",98 % of control
same,T/C,"dose: 300.0 mg/kg/injection, schedule: Q01DX001 (ip), vehicle: saline",97 % of control
CC(=O)Nc1cccc(C[P+](c2ccccc2)(c2ccccc2)c2ccccc2)c1,T/C,"dose: 5.0 mg/kg/injection, schedule: Q01DX001 (ip), vehicle: carboxymethylcellulose (CMC)",95 % of control
same,T/C,"dose: 10.0 mg/kg/injection, schedule: Q01DX001 (ip), vehicle: carboxymethylcellulose (CMC)",98 % of control
same,T/C,"dose: 20.0 mg/kg/injection, schedule: Q01DX001 (ip), vehicle: carboxymethylcellulose (CMC)",95 % of control
same,T/C,"dose: 40.0 mg/kg/injection, schedule: Q01DX001 (ip), vehicle: carboxymethylcellulose (CMC)",95 % of control
same,T/C,"dose: 80.0 mg/kg/injection, schedule: Q01DX001 (ip), vehicle: carboxymethylcellulose (CMC)",93 % of control
same,T/C,"dose: 100.0 mg/kg/injection, schedule: Q01DX001 (ip), vehicle: carboxymethylcellulose (CMC)",97 % of control
same,T/C,"dose: 200.0 mg/kg/injection, schedule: Q01DX001 (ip), vehicle: carboxymethylcellulose (CMC)",90 % of control
BrC12CC3CC(CC(C3)C1)C2,T/C,"dose: 100.0 mg/kg/injection, schedule: Q04DX003 (ip), vehicle: saline with Tween-80",98 % of control
same,T/C,"dose: 200.0 mg/kg/injection, schedule: Q04DX003 (ip), vehicle: saline with Tween-80",102 % of control
same,T/C,"dose: 400.0 mg/kg/injection, schedule: Q04DX003 (ip), vehicle: saline with Tween-80",98 % of control
CC1CN1C(=O)Nc1ccc(Cl)cc1 (stereo not drawn),T/C,"dose: 25.0 mg/kg/injection, schedule: Q04DX002 (ip), vehicle: other",116 % of control
same,T/C,"dose: 50.0 mg/kg/injection, schedule: Q04DX002 (ip), vehicle: other",100 % of control
same,T/C,"dose: 100.0 mg/kg/injection, schedule: Q04DX002 (ip), vehicle: other",97 % of control and 91 % of control
COc1cc(NS(C)(=O)=O)ccc1NS(C)(=O)=O,T/C,[1],112 % of control
same,T/C,[2],108 % of control
same,T/C,[3],108 % of control
same,T/C,[4],94 % of control
same,T/C,"dose: 400.0 mg/kg/injection, schedule: Q01DX009 (ip), vehicle: Klucel (hydroxypropylcellulose) (HPC)",103 % of control
same,T/C,[5],100 % of control
COc1coc(CO)cc1=O,T/C,"dose: 50.0 mg/kg/injection, schedule: Q01DX009 (ip), vehicle: saline with Tween-80",94 % of control
same,T/C,"dose: 100.0 mg/kg/injection, schedule: Q01DX009 (ip), vehicle: saline with Tween-80",97 % of control
CN(C)C1=NS(=O)(=O)N=C(N(C)c2ccccc2)O1,T/C,"dose: 100.0 mg/kg/injection, schedule: Q01DX001 (ip), vehicle: Klucel (hydroxypropylcellulose) (HPC)",109 % of control
same,T/C,[2],97 % of control
same,T/C,"dose: 200.0 mg/kg/injection, schedule: Q01DX001 (ip), vehicle: Klucel (hydroxypropylcellulose) (HPC)",101 % of control
same,T/C,[4],105 % of control
same,T/C,"dose: 400.0 mg/kg/injection, schedule: Q01DX001 (ip), vehicle: Klucel (hydroxypropylcellulose) (HPC)",103 % of control
same,T/C,[5],103 % of control
CCCCCCCC1CCC(N)CC1 (stereo not drawn),T/C,"dose: 12.5 mg/kg/injection, schedule: Q04DX003 (ip), vehicle: Klucel (hydroxypropylcellulose) (HPC)",105 % of control
same,T/C,"dose: 25.0 mg/kg/injection, schedule: Q04DX003 (ip), vehicle: Klucel (hydroxypropylcellulose) (HPC)",91 % of control
same,T/C,"dose: 50.0 mg/kg/injection, schedule: Q04DX003 (ip), vehicle: Klucel (hydroxypropylcellulose) (HPC)",100 % of control
O=C(O)CCCl,T/C,"dose: 50.0 mg/kg/injection, schedule: Q01DX001 (ip), vehicle: saline",90 % of control
same,T/C,"dose: 50.0 mg/kg/injection, schedule: Q01DX009 (ip), vehicle: Klucel (hydroxypropylcellulose) (HPC)",98 % of control
same,T/C,[1],92 % of control
same,T/C,"dose: 100.0 mg/kg/injection, schedule: Q04DX003 (ip), vehicle: saline",104 % of control
same,T/C,"dose: 200.0 mg/kg/injection, schedule: Q01DX001 (ip), vehicle: saline",89 % of control
same,T/C,[3],92 % of control
same,T/C,"dose: 200.0 mg/kg/injection, schedule: Q04DX003 (ip), vehicle: saline",98 % of control
